Data on 90 compounds can be found in a melting point compilation (Tetko et al.; mined from patent text by program, amines drawn as free bases though some values may be those of a salt).

For `Cc1ccc(C(=O)N2CCC3(CC2)OCCO3)cc1`, the melting point fell in the range of 59 to 61 °C.

`CN1CCN(c2nn(S(=O)(=O)c3ccccc3)c3ccc(Cl)cc23)CC1` showed a melting point of 145 to 147 °C.

The compound `O=c1ccn(-c2cccc(C(F)(F)F)c2)nc1-c1ccnn1-c1ccccc1Cl` showed a melting point of 139 to 140 °C.

With `CC(=O)c1c(-c2ccccc2)n(C)c2ccccc12`, the melting point fell in the range of 76 to 77 °C.

Regarding `O=C(CC(CCCc1ccccc1)C(=O)O)c1ccc2c3c(oc2c1)CCCC3` (stereo not given), the melting point fell in the range of 142 to 144 °C.

Take `CC(C)(C(=O)O)c1ccc(OCc2ccccc2)cc1`: the melting point was in the range of 128 to 130 °C.

Turning to `COc1ccc(C(=O)NC(CC(C)C)C(=O)O)c(SSc2cc(OC)ccc2C(=O)NC(CC(C)C)C(=O)O)c1` (stereo not given), the melting point was 230 to 231 °C.

Take `O=C(CNc1ccc2[nH]c(=O)[nH]c2c1)N1CCC(Cc2ccccc2)CC1`: the melting point lay within 237 to 238 °C.

For the compound `NC(C(=O)O)c1ccc(C=CC2CC2)[nH]1` (stereo not given), the melting point came to 275 °C.

In turn, `Cc1ccc(S(=O)(=O)N2C[C@@H](Cl)C[C@@H]2CCl)cc1` came in with a melting point of 103 to 105 °C.

For `CC[C@@H]1O[C@](C#CC2CC2)(C(F)(F)F)c2cc(F)ccc2NC1=O` (relative stereo), the melting point is 186 °C.

Take `CCCc1c(OCCCCCOc2ccc3c(=O)cc(C(=O)OC)oc3c2CCC)ccc(C(C)=O)c1O`: the melting point lay in the range of 86 to 87 °C.

Compound `CC(C)(c1ccc(C(O)(C(F)(F)F)C(F)(F)F)cc1)S(=O)(=O)c1ccccc1` had a melting point of 185 °C.

Take `COc1ccc2cc(C3=CCNCC3)sc2c1`: the melting point lay in the range of 124 to 127 °C.

Turning to `COc1cc(OC)nc(-n2nc(SC)n(N)c2=O)n1`, the melting point is 198 °C.

The compound `O=c1c2c(Cc3ccc(F)cc3)n[nH]c2c2cccnc2n1-c1ccccc1` displayed a melting point of 271 to 274 °C.

For the compound `CCOC(=O)C(=NO)C(=O)Nc1ccc(Cl)cc1C(=O)c1ccccc1`, the melting point was in the range of 98 to 105 °C.

On to `CC1OCC(C)n2c1nc1c(N)nc3ccccc3c12` (stereo not given), for which the melting point lay within 218 to 223 °C.

In the case of `CCCCN(Cc1ccc(-c2ccccc2C#N)cc1)C(=O)Cc1ccccc1C(=O)O`, the melting point lay in the range of 137 to 139 °C.

`CC(C#Cc1ccc(Cl)cc1)N(O)C(N)=O` (stereo not given) returned a melting point of 159 to 161 °C.

`O=C(SC(SC(=O)c1ccccc1)C(=O)O)c1ccccc1` yielded a melting point of 82 to 83 °C.

In the case of `CCOC(=O)c1cc2ccccc2nc1C`, the melting point is 70 to 72 °C.

As for `CC(C)c1ccc(S(=O)(=O)c2ccc(F)cc2)c(C(C)C)c1`, the melting point was 75 to 80 °C.

Compound `CC(=O)C1CCC2C3CCC4CC(O)C(Br)CC4(C)C3C(=O)CC12C` (stereo not given) registered a melting point of 172 to 173 °C.

As for `CC(C)(C)c1cc(CCC(=O)NCc2cccc(NC(=N)c3cccs3)c2)cc(C(C)(C)C)c1O`, the melting point fell in the range of 163 to 164 °C.

Take `CC1COc2cnc3cc(Cl)ccc3c2N1` (stereo not given): the melting point was 215 to 217 °C.

Take `O=C(CCc1cc2ccccc2s1)N1C(=O)OC[C@@H]1Cc1ccccc1`: the melting point fell in the range of 119 to 122 °C.

`Cc1cccc(N2Cc3nc(CO)nn3-c3ccccc32)c1C` showed a melting point of 186 to 194 °C.

`Cc1nnc(F)c(-c2c(F)cc(F)cc2F)c1-c1cccs1` had a melting point of 71 to 74 °C.

`NC(=O)c1ncn2c1nc(N1CCOCC1)c1ccccc12` yielded a melting point of more than 300 °C.

In the case of `CC1(C)CCC(=O)Nc2ccc([N+](=O)[O-])cc21`, the melting point came out at 208 °C.

The compound `CCOC(=O)c1c(CN2CCOCC2)nc2cc3c(cc2c1-c1ccc(OC)c(OC)c1)OCCO3` showed a melting point of 174 to 175 °C.

Turning to `CCOC(=O)NC(=S)Nc1ccc(C(=O)OC(C)(C)C)cc1`, the melting point fell in the range of 119 to 120 °C.

`Cc1oc(-c2ccccc2)nc1CCOc1ccc(CCl)c2sccc12` registered a melting point of 144 to 145 °C.

The compound `O=S(=O)(Nc1onc(C(F)(F)F)c1Br)c1ccccc1` gave a melting point of 104 to 105 °C.

`CN(Cc1cc(-c2ccc(CC3SC(=O)NC3=O)cc2)cs1)C(=O)c1ccccc1` (stereo not given) returned a melting point of 134 °C.

For `O=C(O)CN1C(=O)C(=Cc2ccc(OCCc3ccccc3)c(OCc3ccccc3)c2)SC1=S`, the melting point is 198 to 201 °C.

Consider `CP(C)(=O)c1ccc(C(=O)O)cc1`, for which the melting point was found to be 101 °C.

Turning to `COC(=O)C1=C(C)NC(C)=C(c2nc(CS(=O)(=O)Cc3ccccc3)no2)C1c1cccc([N+](=O)[O-])c1` (stereo not given), the melting point is 227 °C.

Take `COn1cc(-c2ccccc2)c(=O)c(-c2ccccc2)c1`: the melting point was found to be 165 °C.

Regarding `N#Cc1ccc2c(c1)nc(/C=C/c1ccccc1)n2-c1ccccn1`, the melting point lay in the range of 172 to 173 °C.

`O=C(O)C(CCCCc1ccccc1)Oc1cccc2ccccc12` (stereo not given) came in with a melting point of 91 to 94 °C.

`CC(=O)c1cccc2c1NCC2`: the melting point lay within 83 to 85 °C.

The compound `S=C1CN=C(c2ccccc2)c2ccsc2N1` displayed a melting point of 208 to 210 °C.

Compound `CC1=NNC(=O)N(N=Cc2cccnc2C)C1` came in with a melting point of 226 to 229 °C.

The compound `N#Cc1cccnc1N1CCN(CC(=O)Nc2cc(C(F)(F)F)ccc2F)CC1` gave a melting point of 130 to 133 °C.

Take `CC[C@H]1CN(c2ccc(-c3ccnc(Nc4cc(OC)c(OC)c(OC)c4)n3)cn2)CCN1`: the melting point fell in the range of 82 to 83 °C.

Regarding `CCOC(=O)C(C#N)=NOS(C)(=O)=O`, the melting point lay within 79 to 83 °C.

`O=C(Oc1ccccc1)OC1c2nccnc2C(=O)N1c1ccc(Cl)cn1` (stereo not given) registered a melting point of 193 °C.

As to `CC(C)(C)OC(=O)N(C(=O)OC(C)(C)C)c1sc(-c2cncc(F)c2)nc1F`, the melting point stood at 143 °C.

Regarding `CC1SC(=O)NN=C1c1ccc(N2CCC(N)CC2)c([N+](=O)[O-])c1` (stereo not given), the melting point lay in the range of 154 to 157 °C.

In turn, `CC1(C)Cc2cc(O)c(Cl)c(Cl)c2C1=O` returned a melting point of 273 °C.

In the case of `CCC1CC(=O)N(Cc2cccc(NS(C)(=O)=O)c2)N=C1c1ccc(OC)c(OC)c1` (stereo not given), the melting point worked out at 126 °C.

Compound `COc1cc2c(cc1OC)C(=O)CCCO2` came in with a melting point of 87 to 88 °C.

`Cc1c(NC(=O)c2ccc(-c3cccc(NC(=O)C(C)C)c3)cc2)ccc2cc(CN3CCCC3)cnc12` yielded a melting point of 152 to 155 °C.

`CCN(CC)C(=O)CCS(=O)c1cc(-c2ccccc2)nc2ccccc12` (stereo not given) came in with a melting point of 130 °C.

As to `Cn1c(COc2ccc(CC3SC(=O)NC3=O)cc2)nc2ccc(Sc3ccccc3)nc21` (stereo not given), the melting point lay within 166 to 168 °C.

The compound `COc1cccc(C(=O)N(C)C)c1-c1ccccc1` had a melting point of 83 to 84 °C.

Regarding `O=C1NCC(c2ccccc2)N1CCCS` (stereo not given), the melting point lay in the range of 97 to 99 °C.

Take `C[Si](C)(CCCc1nnc(N)nc1O)c1ccccc1`: the melting point fell in the range of 250 to 252 °C.

`CCc1ccc(C2C(C(=O)c3ccc(C(C)C)cc3)=C(O)C(=O)N2c2ccc(C)nn2)cc1` (stereo not given) yielded a melting point of 282 to 284 °C.

For the compound `COC(=O)Nc1ccc(CN2OCC(C)(C)C2=O)c(Cl)c1`, the melting point fell in the range of 165 to 167 °C.

The compound `CCOCCOC(=O)C(=O)Nc1nc(-c2cc(OC)ccc2OC)cs1` displayed a melting point of 140 to 141 °C.

Regarding `CC(=O)OC(CCl)c1cccnc1S(N)(=O)=O` (stereo not given), the melting point lay within 146 to 147 °C.

As to `O=C1CSC(=S)N1C(=O)Nc1ccc2nc(S)sc2c1`, the melting point was 212 to 217 °C.

As for `CC(=C1SC(=O)NC1=O)c1ccc(OCCOc2c(-c3ccc(F)cc3)n(C)c3ccccc3c2=O)cc1`, the melting point lay in the range of 228 to 230 °C.

In the case of `O=C(Nc1ccc(-n2nc(C(F)(F)F)cc2C(F)(F)F)cc1)c1ccc(-n2cccc2)cc1`, the melting point was 249 to 252 °C.

In the case of `O=C(Oc1ccc2cc(CN3CCCC3)ccc2c1)N1CCC(c2ccc(Cl)cc2)CC1`, the melting point is 121 to 123 °C.

Consider `Nc1nc2cc(CO)ccc2n1Cc1cccc2cccnc12`, for which the melting point is more than 260 °C.

As to `CC(CCCC(C)(O)CO)C1CCC2C3CC=C4CC(O)CCC4(C)C3CCC12C` (stereo not given), the melting point is 173 to 176 °C.

For the compound `CC(=O)c1ccc(OCCCOc2ccc(C(=O)C(=O)O)cc2)cc1O`, the melting point lay in the range of 133 to 135 °C.

Compound `COC(=O)C(C(=O)OC)C(C#Cc1ccccc1)c1ccc(OC)c(OC2CCCC2)c1` (racemic) returned a melting point of 66 to 67 °C.

`C=CCSc1nnc(OC)c(C)c1C` yielded a melting point of 51 to 53 °C.

Consider `CCCCc1cc(-c2nnn[nH]2)ncc1C(=O)O`, for which the melting point is more than 300 °C.

For `Cc1ccc(Cl)cc1-c1noc(CCC#Cc2ccccn2)n1`, the melting point was 66 to 68 °C.

Consider `CC(=O)Nc1c(CC(=O)O)c2ccccc2n1C`, for which the melting point is 200 to 206 °C.

In the case of `O=c1[nH]c2cc(Cl)ccc2c(O)c1-c1ccccc1Oc1ccccc1`, the melting point was 284 to 288 °C.

In turn, `COC(=O)C1c2ccccc2N(C)c2ccc(Cl)cc21` (stereo not given) registered a melting point of 166 °C.

`CC(=O)C(=[N+]=[N-])C(=O)CCCCCCCCCc1ccc(S(=O)(=O)Cl)cc1` showed a melting point of 48.5 to 50 °C.

In the case of `CONC(=O)c1cc(-c2ccc(-c3ccco3)cc2)n(-c2ccc(S(C)(=O)=O)c(F)c2)n1`, the melting point was 126 to 128 °C.

`CCCCCCOc1ccc2[nH]c(SC(C)(C(=O)O)c3ccccc3)cc2c1` (stereo not given) registered a melting point of 100 to 102 °C.

For `CCC(C(=O)O)N(C(=O)c1cn(-c2cccc(C(F)(F)F)c2)nc1C)c1ccc(OCC(C)(C)C)c(C#N)c1` (stereo not given), the melting point lay in the range of 156 to 158 °C.

With `CCCCCCCCCCCCCCCC(=O)OCC(COCc1ccccc1)OC(=O)CCCCCCCCCCCCCCC` (stereo not given), the melting point was in the range of 40 to 42 °C.

Consider `CCC1(CCCCCBr)C(=O)Nc2ccc(F)cc21` (stereo not given), for which the melting point lay in the range of 82 to 83 °C.

`COc1cc2ccccc2cc1OC`: the melting point lay within 112 to 113 °C.

`COc1ccc(-c2cc(Oc3c(C)cc(C)cc3C)nc(C)n2)cc1OC` yielded a melting point of 122 to 125 °C.

In turn, `NC(=O)c1ccc(NCc2cccc([N+](=O)[O-])c2)cc1` yielded a melting point of 178 to 180 °C.

Compound `O=C(O)CCCCCCOc1ccc(-c2ccccc2)cc1` registered a melting point of 78 to 79 °C.

For `CCCCOc1ccc2sc(-c3ccccn3)nc(=O)c2c1`, the melting point is 161 to 162 °C.

In turn, `CCC(CC)Nc1c([N+](=O)[O-])cc(CC=NO)c(C(C)C)c1[N+](=O)[O-]` returned a melting point of 114 to 115 °C.
